Results as given in patent publication US20230149448A1, “METHODS FOR PREVENTING AND TREATING R[…] MODIFICATION OF VIRUS RECEPTOR BINDING DOMAINS USING […]” (priority 2021, published 2023).

Key:
SARS-CoV-2 [1] = format: cell-based
[2] = target: receptor binding domain (RBD) of Spike S protein (Severe acute respiratory syndrome coronavirus 2, UniProt P0DTC2); assay: Exposure of Spike protein, capture/detection by RBD-specific antibodies (96 well, HRP); set-up: species or system SARS-CoV-2; conditions: 150 ppm, 5 minutes exposure
human subjects = assay: Safety of microaerosolized HOCl inhalation in human volunteers; format: in vivo; conditions: dense microaerosols for 2-5 minutes, 400 episodes
Protocol: The safety of exposure of human subjects to microaerosolized pure stable HOCl of the present disclosure via the respiratory route was evaluated.
Human volunteers were exposed to dense microaerosols of HOCl for periods of 2-5 minutes and submitted subjective reports of the outcomes of these experiences. Data on a total of 400 such episodes were collected under medical supervision.

SARS-CoV-2 [3] = format: cell-based; remark: listed apart in the source

Row | Compound | average reductions in infectivity (positive control) (SARS-CoV-2 [1]) | inhibition of chromophore formation (S protein remaining bound by RBD specific antibodies) [2] | serious adverse effects (human subjects) | minor complaints (nose irritation, slight impact on ease of deep breathing) (human subjects; disappeared upon cessation of exposure) | average reduction in titer (SARS-CoV-2 [3]) | average reductions in infectivity (SARS-CoV-2 [1])
1 | CCO [45% ethanol, ethanol, reference compound] | 99.98% | – | – | – | – | –
2 | OBr [HOBr, hypobromous acid] | – | complete inhibition | – | – | – | –
3 | OCl [HOCl, hypochlorous acid] | – | complete inhibition | No serious adverse effects | approximately 3% | 99.96% | 99.92%
